Experimental data: article PMC3006138, “Fexinidazole – A New Oral Nitroimidazole Drug Candidate Entering Clinical Development for the Treatment of Sleeping Sickness” (PLoS Neglected Tropical Diseases, 2010)
Entries after “also recorded” stand apart in the source; their conditions may differ.

What was measured:
[1] = Hepatocyte intrinsic clearance and metabolite profile; assay type: in vitro ADME, cynomolgus monkey; settings: male, cynomolgus monkey, cryopreserved hepatocytes, 1 µM
Experimental: Fexinidazole was incubated with cryopreserved hepatocytes from male CD-1 mice, male Sprague Dawley rats, male beagle dogs, male cynomolgus monkeys, and from pooled white or African-American human donor samples (purchased commercially), at concentrations of 1 µM and 10 µM. […] The incubated samples were analyzed by LC-MS after extraction into acetonitrile.
A quality control analysis of fexinidazole was performed via 1H-NMR in DMSO and LC- […]
provided by the Swiss Tropical Institute (Basel, Switzerland).
Reagents and solvents were of analytical grade and obtained from Sigma-Aldrich (St. Louis, […]
Cryopreserved hepatocytes from the male CD1 mouse, lot CSI; male Sprague Dawley rat, lot LPL; male beagle dog, lot BWX; male cynomolgus monkey, lot EHH; and pooled human samples, lot MJI, were purchased from In Vitro Technologies Inc (Baltimore, Maryland, […]
5.4. In vitro Incubations
On the day of the experiment a 10 mM stock solution of fexinidazole in DMSO was prepared and, within 3 hours, aliquots of this freshly prepared solution, after suitable dilution, were added to the incubation matrix, to reach fexinidazole final concentrations of 1 and 10 µM. The final percentage of DMSO was 0.01% in the incubation samples for the […]
On the day of experiment, the cryopreserved hepatocytes were thawed following the detailed instructions provided by the supplier.
The number of viable cells was determined using a Trypan Blue exclusion method.
5.4.1. Intrinsic Clearance Study […]
µM with mouse, rat, dog, monkey and human hepatocytes (300000 cells/mL for the mouse and 1 million cells/mL for the other species) in a final incubation volume of 0.75 mL […]
Incubations were performed in duplicate in a 48-well plate under shaking. Sampling was performed using an automatic liquid handling system (Multiprobe II EX, Packard). At 0, 1, 5, 10, 15, 20, 30, 60 and 120 minutes, 50 µL aliquots of the incubates were taken, then 80 µL of ice-cold acetonitrile and 20 µL of 1 µM warfarin in acetonitrile (internal standard) were added, and samples centrifuged at 2000 rpm for 20 min. The supernatant was analyzed by LC-MS/MS. […]
the medium alone at t = 0 and 120 minutes.
For the determination of phase I and phase II activity of hepatocytes, 7-ethoxycoumarin (7-EC) 1 µM, and 7-hydroxycoumarin (7-HC) 30 µM were used as positive controls and incubated under the same conditions as fexinidazole. Aliquots of incubates were taken at 0, 10, 20, 30, 60 and 120 minutes and processed as fexinidazole samples.
5.4.2. Metabolite Profile Study
For metabolite profiling, fexinidazole was incubated at a concentration of 10 µM with mouse, rat, dog, monkey and human hepatocytes (300000 cells/mL for the mouse and 1 million cells/mL for the other species) in a final incubation volume of 2 mL Leibovitz L-15 […]
Aliquots of the incubation samples were taken at t = 0, 30 and 120 minutes; the metabolism was stopped by the addition of an equal volume of cold acetonitrile and the samples centrifuged at 1500 rpm for 20 min. The supernatant was stored at -20°C until analysis. Control incubations were performed with the compound in the medium alone […]
5.5. Analysis of Samples for Intrinsic Clearance Determination
The analysis of the samples for intrinsic clearance determination was performed by an LC-MS/MS method, using the following conditions:
HPLC Equipment and Conditions
HPLC system Agilent 1100 binary pump (Agilent, Palo Alto, USA)
Autosampler CTC Pal (Alfatech, San Jose, USA)
Analytical column Guard Column SB-C8 4.6 x 12.5 mm, 5 µm (Zorbax)
Column temperature ambient
Mobile phase A 10 mM ammonium formate pH 4.0: acetonitrile (95:5, v:v)
Mobile phase B 10 mM ammonium formate pH 4.0: acetonitrile (5:95, v:v) […]
Gradient conditions Step Total time (min) flow (µL/min) %A % B […]
MS Equipment and Conditions
Mass spectrometer API 4000 Triple Quadrupole (MDS-Sciex, Toronto, […]
Source Turbo Ion Spray (TIS)
Ion mode Positive for fexinidazole and 7-EC.
Negative for 7-HC, 7-HC sulphate and 7-HC glucuronide.

Salmonella typhimurium = assay: Ames test; assay type: cell-based; settings: for bacterial mutagenicity: standard strains, with and without S9
Experimental: To evaluate bacterial mutagenicity, a full Ames test was carried out on fexinidazole and fexinidazole sulfone using the five strains of Salmonella typhimurium recommended by the relevant ICH regulatory guideline, namely TA1535, TA1537, TA98, TA100, and TA102, as well as the corresponding nitroreductase-deficient strains, [48]. Standard bacterial plate incorporation assays were carried out, essentially as described by Maron and Ames. Tests on fexinidazole were carried out with and without rat liver post-mitochondrial fraction plus co-factors (S9 mix) to provide a mammalian metabolic activation system. The S9 fraction was prepared from Spague-Dawley rats pretreated with the mixed cytochrome P 450 enzyme inducer Aroclor 1254. Tests on fexinidazole sulfone were carried out only in the absence of rat liver S9 (as this is a metabolite). After incubation at 37°C for three days, plates were scored for mutant colonies using a Colony Counter plate reader.

[2] = set-up: method as in study 0339-2007; settings: 7-day repeated toxicity study, top dose 2000 mg/kg, ref study 0339-2007; cited from earlier work
[3] = tested on: cytochrome P450 (CYP450) enzymes; assay: In vitro CYP-450 metabolism (whole panel); assay type: in vitro ADME, human; settings: 1.0 µM, up to 60 min
Experimental: Duplicate samples of human recombinant CYP enzyme isotypes CYP1A2, CYP2B6, CYP2C8, CYP2C9, CYP2C19, CYP2D6, CYP3A4, CYP3A5 (10–30 pmol/mL) with NADPH as cofactor were incubated with fexinidazole, fexinidazole sulfoxide, or fexinidazole sulfone at a concentration of 1.0 µM for up to 60 min (pH 7.4, 37°C). Detection of the compounds was via HPLC-MS.

Row | SMILES | CLint scaled at 1 µM ([1]; read-out: CLint in vitro) | half-life at 1 µM ([1]; cynomolgus) | hepatocyte CLint at 1 µM ([1]; cynomolgus, read-out: CLint in vitro) | mutagenic activity (Salmonella typhimurium; nitroreductase-deficient Salmonella strains) | bacterial mutagenicity (Salmonella typhimurium) | tolerability [2] | metabolism by the enzymes tested [3]
1 | CSc1ccc(OCc2ncc([N+](=O)[O-])n2C)cc1 [Fexinidazole, 1-methyl-2-((p-(methylthio)phenoxy)methyl)-5-nitroimidazole] | 390 L/h/kg | 36 s | 1190 µL/min/1e6 cells | significantly reduced or abolished | elicited both frameshift and base substitution mutations; also recorded: mutagenic in the Ames test | well tolerated | –
2 | Cn1c([N+](=O)[O-])cnc1COc1ccc(S(C)(=O)=O)cc1 [Fexinidazole sulfone] | – | – | – | – | gave similar results to fexinidazole | – | none of the enzymes tested metabolised
3 | Cn1c([N+](=O)[O-])cnc1COc1ccc([S+](C)[O-])cc1 (stereo not drawn) [Fexinidazole sulfoxide] | – | – | – | – | – | – | none of the enzymes tested metabolised
